Source: PMC9653804, “Multifunctional Derivatives of Spiropyrrolidine Tethered Indeno-Quinoxaline Heterocyclic Hybrids as Potent Antimicrobial, Antioxidant and Antidiabetic Agents: Design, Synthesis, In Vitro and In Silico Approaches” (Molecules, 2022)
Values after ≈ are worked out from the molar mass of the structure shown.

Tests used:
[1] = test system: Staphylococcus aureus ATCC 25923; experiment: Antimicrobial activity (MIC, MBC) against S. aureus; assay type: cell-based; conditions: S. aureus ATCC 25923; for MBC/MIC: bactericidal ≤ 4, bacteriostatic > 4; for MIC: Staphylococcus aureus, ATCC25923, '-' = No activity
[2] = test system: Escherichia coli ATCC 25922; experiment: Antimicrobial activity (MIC, MBC) against E. coli; assay type: cell-based; conditions: E. coli ATCC 25922; '-' = No activity
[3] = test system: Pseudomonas aeruginosa ATCC 27853; experiment: Antimicrobial activity (MIC, MBC) against P. aeruginosa; assay type: cell-based; conditions: P. aeruginosa ATCC 27853, '-' = No activity
[4] = test system: Candida albicans ATCC 90028; experiment: Antifungal activity (MIC, MFC) against C. albicans; assay type: cell-based; conditions: C. albicans ATCC 90028, '-' = No activity; for MFC/MIC: fungicidal ≤ 4, fungistatic > 4; for MFC / MIC: Candida albicans, ATCC90028
Candida krusei ATCC 6258 = experiment: Antifungal activity (MIC, MFC) against C. krusei; assay type: cell-based; conditions: C. krusei ATCC 6258, '-' = No activity; for MFC / MIC: Pichia kudriavzevii, ATCC6258
[5] = DPPH free radical scavenging activity; conditions: DPPH radical scavenging
Procedure: DPPH, the stable artificial free radicals, has been widely used for the measurement of free radical scavenging capacity of the compounds in ethanol and aqueous systems. Briefly, 2 mL DPPH solution (0.2 mM, in 95% ethanol) was incubated with 2 mL different concentrations of compounds solution. Then, the reaction mixture was shaken and incubated in the dark for 40 min at room temperature. The absorbance was immediately recorded at 517 nm against ethanol with a spectrophotometer (Metash, model UV-5200, Shanghai Xiwen Biotech. Co., Ltd, Shanghai, China). The DPPH free radical scavenging rate was calculated using the equation:DPPH scavenging activity (%) = A0 − A1/A0 × 100 where A0 was the absorbance of the control reaction (containing all reagents except the tested compound), and A1 was the absorbance of the test reaction (containing all reagents with the tested compound). The percentage of DPPH radical scavenging activity was plotted against the sample concentration to acquire the IC50 value, defined as the concentration of sample necessary to cause 50% inhibition. Radical scavenging activity (RSA) was calculated from the IC50 value as the equation: RSA = pIC50 = −lg[IC50]. The smaller the IC50 value, the larger is the RSA value and the higher is the antioxidant activity.

[6] = Radical scavenging activity ABTS; conditions: for IC50: ABTS radical scavenging; for ABTS scavenging activity, fold higher than Trolox: relative to standard Trolox
Procedure: The ABTS assay was performed as previously described by Tuberoso et al.. ABTS^+ radical was generated by oxidation of ABTS with potassium persulfate. The blue–green ABTS was produced through the reaction between 2 mM ABTS and […] potassium persulfate in water. The mixture was left to stand in the dark for 12 to 16 h before use. The ABTS solution was diluted with methanol to an absorbance of 0.700 ± 0.005 at 734 nm. Then 2 mL of diluted ABTS solution was mixed with 100 μL of samples and absorbance was measured after 1 min incubation at room temperature. A standard curve was obtained by using Trolox as standard solution. The results were expressed as μM Trolox equivalent.
The mixture of 7 mmol/L aqueous ABTS solution with 2.45 mmol/L potassium persulfate solution constitutes a stable ABTS^+ stock solution that was allowed to stand in the dark and at room temperature for 12 to 16 h before use. A 1 mL sample of the diluted ABTS solution (adjusted to 0.7 ± 0.02 at […]) was added to 10 μL of each product. The absorbance was determined after 6 min. The percentage inhibition of the ABTS˙ radical was calculated from the following equation:% inhibition = (Abscontrol − Abstest)/Abscontrol × 100
Abs control: the control absorbance.
Abs test: the absorbance of the test sample after 6 min.

[7] = Ferric reducing power assay (FRAP)
[8] = test system: Micrococccus luteus NCIMB 8166; experiment: Antimicrobial activity (MIC, MBC) against M. luteus; assay type: cell-based; conditions: M. luteus NCIMB 8166, '-' = No activity; for MIC: Micrococcus luteus, NCIMB8166

SMILES | MBC/MIC [2] | MBC/MIC [3] | MFC/MIC (Candida krusei ATCC 6258) | MIC (Candida krusei ATCC 6258) | IC50 [5] | IC50 [6] | melting point | IC50 [7] | MIC [1] | MIC [4] | MBC/MIC [8] | MIC [8] | MIC ([3]; Pseudomonas aeruginosa, ATCC27853) | MBC/MIC [1] | MFC/MIC [4] | MFC (Candida krusei ATCC 6258) | MFC [4] | ABTS scavenging activity, fold higher than Trolox [6]
CN1C(=O)CC2(C1=O)C(c1ccccc1)CN(C)C21c2ccccc2-c2nc3ccccc3nc21 (stereo not shown) [5a, Spiro [2,11″]indeno-[1,2b]-quinoxaline-spiro-[3,3′]-N-methylsuccinimide-4-(phenyl)hexahydro-1H-pyrrolidines] | 2 | 4 | 1 | 67.6 mM (≈ 31.1 mg/mL) | 15.4 ± 0.65 µM | 49.19 ± 0.46 µM | 173 to 175 °C | 17 ± 0.52 µM | – | – | – | – | – | 2 | 1 | 67.6 mM (≈ 31.1 mg/mL) | – | –
Cc1ccc(C2CN(C)C3(c4ccccc4-c4nc5ccccc5nc43)C23CC(=O)N(C)C3=O)cc1 (stereo not shown) [5b, Spiro [2,11″]indeno-[1,2b]-quinoxaline-spiro-[3,3′]-N-methylsuccinimide-4-(4-methylphenyl)hexahydro-1H-pyrrolidines] | 2 | 4 | 1 | 65.6 mM (≈ 31.1 mg/mL) | 33.74 ± 0.004 µM | 57.51 ± 0.55 µM | 183 to 185 °C | 63.26 ± 0.21 µM | 65.6 mM (≈ 31.1 mg/mL) | – | – | – | – | 8 | 2 | 65.6 mM (≈ 31.1 mg/mL) | – | –
COc1ccccc1C1CN(C)C2(c3ccccc3-c3nc4ccccc4nc32)C12CC(=O)N(C)C2=O (stereo not shown) [5c, Spiro [2,11″]indeno-[1,2b]-quinoxaline-spiro-[3,3′]-N-methylsuccinimide-4-(2 methoxyphenyl)hexahydro-1H-pyrrolidines] | – | 2 | 1 | 63.4 mM (≈ 31.1 mg/mL) | 3.26 ± 0.32 µM | 7.03 ± 0.07 µM | 196 to 198 °C | 3.69 ± 0.72 µM | 31.7 mM (≈ 15.6 mg/mL) | 63.4 mM (≈ 31.1 mg/mL) | – | – | – | 16 | 1 | 63.4 mM (≈ 31.1 mg/mL) | 63.4 mM (≈ 31.1 mg/mL) | –
CN1C(=O)CC2(C1=O)C(c1ccc(Br)cc1)CN(C)C21c2ccccc2-c2nc3ccccc3nc21 (stereo not shown) [5f, Spiro [2,11″]indeno-[1,2b]-quinoxaline-spiro-[3,3′]-N-methylsuccinimide-4-(4-bromophenyl)hexahydro-1H-pyrrolidines] | 2 | 2 | 1 | 57.7 mM (≈ 31.1 mg/mL) | 16.1 ± 0.39 µM | 18.1 ± 0.53 µM | 200 to 202 °C | 7.93 ± 0.44 µM | – | 57.7 mM (≈ 31.1 mg/mL) | – | – | – | 2 | 1 | 57.7 mM (≈ 31.1 mg/mL) | 57.7 mM (≈ 31.1 mg/mL) | ~6 fold
COc1ccc(C2CN(C)C3(c4ccccc4-c4nc5ccccc5nc43)C23CC(=O)N(C)C3=O)cc1OC (stereo not shown) [5j, Spiro [2,11″]indeno-[1,2b]-quinoxaline-spiro-[3,3′]-N-methylsuccinimide-4-(3,4-dimethoxyphenyl)hexahydro-1H-pyrrolidines] | 2 | 2 | 1 | 59.8 mM (≈ 31.1 mg/mL) | 19.2 ± 0.19 µM | 11.56 ± 0.05 µM | 211 to 213 °C | 5.98 ± 0.17 µM | 14.9 mM (≈ 7.78 mg/mL) | – | 2 | – | – | 32 | 2 | 59.8 mM (≈ 31.1 mg/mL) | – | –
CN(C)[C@@H]1C(O)=C(C(N)=O)C(=O)[C@@]2(O)C(O)=C3C(=O)c4c(O)cccc4[C@@](C)(O)[C@H]3C[C@@H]12 [Tetracycline, reference compound] | 1 | 2 | – | – | – | – | – | – | – | – | 2 | – | – | 2 | – | – | – | –
Cc1c(C)c2c(c(C)c1O)CCC(C)(C(=O)O)O2 (stereo not shown) [Trolox, reference compound] | – | – | – | – | 31.2 ± 3.67 µM | 99.88 ± 0.31 µM | – | 41.9 ± 2.07 µM | – | – | – | – | – | – | – | – | – | –

More lines, main results first:

MBC/MIC [2] | MBC/MIC [3] | MFC/MIC (Candida krusei ATCC 6258) | MIC (Candida krusei ATCC 6258) | IC50 [5] | IC50 [6] | melting point | IC50 [7] | MIC [1] | MIC [4] | MBC/MIC [8] | MIC [8] | MIC ([3]; Pseudomonas aeruginosa, ATCC27853) | SMILES | MBC/MIC [1] | MFC/MIC [4] | MFC (Candida krusei ATCC 6258) | MFC [4] | ABTS scavenging activity, fold higher than Trolox [6]
4 | 4 | 1 | 15.8 mM (≈ 7.78 mg/mL) | 7.44 ± 0.15 µM | 9.78 ± 0.3 µM | 179 to 181 °C | 8.09 ± 0.82 µM | 3.95 mM (≈ 1.94 mg/mL) | 31.7 mM (≈ 15.6 mg/mL) | 4 | 63.4 mM (≈ 31.1 mg/mL) | – | COc1ccc(C2CN(C)C3(c4ccccc4-c4nc5ccccc5nc43)C23CC(=O)N(C)C3=O)cc1 (stereo not shown) [5d, Spiro [2,11″]indeno-[1,2b]-quinoxaline-spiro-[3,3′]-N-methylsuccinimide-4-(4-methoxyphenyl)hexahydro-1H-pyrrolidines] | 32 | 4 | 15.8 mM (≈ 7.78 mg/mL) | – | –
2 | 2 | 1 | 32.5 mM (≈ 15.6 mg/mL) | 26 ± 0.5 µM | 7.19 ± 0.11 µM | 205 to 207 °C | 20.5 ± 0.6 µM | 16.2 mM (≈ 7.78 mg/mL) | 65 mM (≈ 31.1 mg/mL) | – | – | – | CN1C(=O)CC2(C1=O)C(c1ccc(F)cc1)CN(C)C21c2ccccc2-c2nc3ccccc3nc21 (stereo not shown) [5g, Spiro [2,11″]indeno-[1,2b]-quinoxaline-spiro-[3,3′]-N-methylsuccinimide-4-(4-fluorophenyl)hexahydro-1H-pyrrolidines] | 16 | 1 | 32.5 mM (≈ 15.6 mg/mL) | 65 mM (≈ 31.1 mg/mL) | about 14 fold
2 | 2 | 1 | 54.7 mM (≈ 31.1 mg/mL) | 123.4 ± 0.45 µM | 7.69 ± 0.36 µM | 209 to 211 °C | 6.03 ± 0.12 µM | 54.7 mM (≈ 31.1 mg/mL) | – | – | – | – | COc1ccc(C2CN(C)C3(c4ccccc4-c4nc5ccccc5nc43)C23CC(=O)N(C)C3=O)cc1Br (stereo not shown) [5k, Spiro [2,11″]indeno-[1,2b]-quinoxaline-spiro-[3,3′]-N-methylsuccinimide-4-(3-bromo-4-methoxyphenyl)hexahydro-1H-pyrrolidines] | 8 | 1 | 54.7 mM (≈ 31.1 mg/mL) | – | –
2 | 4 | 1 | 28 mM (≈ 15.6 mg/mL) | 15.3 ± 0.37 µM | 15.2 ± 0.31 µM | 189 to 191 °C | 3.26 ± 0.45 µM | 28 mM (≈ 15.6 mg/mL) | 56.1 mM (≈ 31.1 mg/mL) | 2 | – | – | CN1C(=O)CC2(C1=O)C(c1ccc(O)c(Br)c1)CN(C)C21c2ccccc2-c2nc3ccccc3nc21 (stereo not shown) [5l, Spiro [2,11″]indeno-[1,2b]-quinoxaline-spiro-[3,3′]-N-methylsuccinimide-4-(3-bromo-4-hydroxy-phenyl)hexahydro-1H-pyrrolidines] | 16 | 8 | 28 mM (≈ 15.6 mg/mL) | – | –
1 | 4 | 1 | 49.1 mM (≈ 31.1 mg/mL) | 47.29 ± 0.06 µM | 14.6 ± 0.26 µM | 214 to 216 °C | 7.38 ± 0.14 µM | 24.5 mM (≈ 15.6 mg/mL) | 98.2 mM (≈ 62.3 mg/mL) | – | 98.2 mM (≈ 62.3 mg/mL) | 98.2 mM (≈ 62.3 mg/mL) | CN1C(=O)CC2(C1=O)C(c1cc(Br)c(O)c(Br)c1)CN(C)C21c2ccccc2-c2nc3ccccc3nc21 (stereo not shown) [5m, Spiro [2,11″]indeno-[1,2b]-quinoxaline-spiro-[3,3′]-N-methylsuccinimide-4-(3,5-dibromo-4-hydroxyphenyl)hexahydro-1H-pyrrolidines] | 8 | 1 | 49.1 mM (≈ 31.1 mg/mL) | 98.2 mM (≈ 62.3 mg/mL) | –
– | – | 1 | 5.41 mM (≈ 5 mg/mL) | – | – | – | – | – | 5.41 mM (≈ 5 mg/mL) | – | – | – | C[C@@H]1[C@H](O)[C@@H](C)/C=C/C=C/C=C/C=C/C=C/C=C/C=C/[C@H](O[C@@H]2O[C@H](C)[C@@H](O)[C@H](N)[C@@H]2O)C[C@@H]2O[C@](O)(C[C@@H](O)C[C@@H](O)[C@H](O)CC[C@@H](O)C[C@@H](O)CC(=O)O[C@H]1C)C[C@H](O)[C@H]2C(=O)O [Amphotericin B, reference compound] | – | 1 | 5.41 mM (≈ 5 mg/mL) | 5.41 mM (≈ 5 mg/mL) | –
